# Tests used:
# Assay in all cases: relative viability (nuclei count vs DMSO), 5 days (fraction); higher = more cells survive
# [1] = compound: CC1=C(C(=O)N2C=CSC2=N1)CCN3CCC(=C(C4=CC=CC=C4)C5=CC=C(C=C5)F)CC3 + CS(=O)(=O)N1CCN(Cc2cc3nc(-c4cccc5[nH]ncc45)nc(N4CCOCC4)c3s2)CC1 [Pictilisib] (partner 1 µM)
# How it was run: (§1)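 Lung cancer cell lines were seeded in 1536-well plates and dosed by pin tool the next day, with either a single drug or a fixed anchor-drug dose combined with five library-drug doses (not always all listed) spaced in √10 steps. Five days later, one step fixed the cells and stained their nuclei (final 0.05% Triton X-100, 1% formaldehyde, 1 ug/ml Hoechst), and nuclei were counted on 4× images. Relative viability is the nuclei count in treated wells divided by the count in vehicle wells, and each value is the median of duplicate plates.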
# [2] = compound: CC1=C(C(=O)N2C=CSC2=N1)CCN3CCC(=C(C4=CC=CC=C4)C5=CC=C(C=C5)F)CC3 + CC1(C)CCC(c2ccc(Cl)cc2)=C(CN2CCN(c3ccc(C(=O)NS(=O)(=O)c4ccc(N[C@H](CCN5CCOCC5)CSc5ccccc5)c(S(=O)(=O)C(F)(F)F)c4)cc3)CC2)C1 [Navitoclax] (partner 0.5 µM)
# How it was run: as §1
# [3] = compound: CC1=C(C(=O)N2C=CSC2=N1)CCN3CCC(=C(C4=CC=CC=C4)C5=CC=C(C=C5)F)CC3 + CC(C)C[C@H](NC(=O)[C@H](Cc1ccccc1)NC(=O)c1cnccn1)B(O)O [Bortezomib] (partner 0.002 µM)
# How it was run: as §1
# [4] = compound: CC1=C(C(=O)N2C=CSC2=N1)CCN3CCC(=C(C4=CC=CC=C4)C5=CC=C(C=C5)F)CC3 + C[C@]1(O)C[C@@H](c2nc(-c3ccc4ccc(-c5ccccc5)nc4c3)c3c(N)nccn32)C1 [Linsitinib] (partner 1 µM)
# How it was run: as §1
# [5] = compound: CC1=C(C(=O)N2C=CSC2=N1)CCN3CCC(=C(C4=CC=CC=C4)C5=CC=C(C=C5)F)CC3 + O=C(c1cc(Cc2n[nH]c(=O)c3ccccc23)ccc1F)N1CCN(C(=O)C2CC2)CC1 [Olaparib] (partner 8 µM)
# How it was run: as §1
# [6] = compound: CC1=C(C(=O)N2C=CSC2=N1)CCN3CCC(=C(C4=CC=CC=C4)C5=CC=C(C=C5)F)CC3 + C[C@@H](Oc1cc(-c2cnn(C3CCNCC3)c2)cnc1N)c1c(Cl)ccc(F)c1Cl [Crizotinib] (partner 1 µM)
# How it was run: as §1
# [7] = compound: CC1=C(C(=O)N2C=CSC2=N1)CCN3CCC(=C(C4=CC=CC=C4)C5=CC=C(C=C5)F)CC3 + COc1cc2c(Oc3ccc(NC(=O)C4(C(=O)Nc5ccc(F)cc5)CC4)cc3F)ccnc2cc1OCCCN1CCOCC1 [Foretinib] (partner 0.25 µM)
# How it was run: as §1
# [8] = compound: CC1=C(C(=O)N2C=CSC2=N1)CCN3CCC(=C(C4=CC=CC=C4)C5=CC=C(C=C5)F)CC3 + Cc1nc(NC(=O)N2CCC[C@H]2C(N)=O)sc1-c1ccnc(C(C)(C)C(F)(F)F)c1 [Alpelisib] (partner 2 µM)
# How it was run: as §1
# [9] = compound: CC1=C(C(=O)N2C=CSC2=N1)CCN3CCC(=C(C4=CC=CC=C4)C5=CC=C(C=C5)F)CC3 + CS(=O)(=O)CCNCc1ccc(-c2ccc3ncnc(Nc4ccc(OCc5cccc(F)c5)c(Cl)c4)c3c2)o1 [Lapatinib] (partner 2 µM)
# How it was run: as §1
# [10] = compound: CC1=C(C(=O)N2C=CSC2=N1)CCN3CCC(=C(C4=CC=CC=C4)C5=CC=C(C=C5)F)CC3
# How it was run: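 Cells of lung cancer lines were placed in 1536-well plates and kept overnight at 37 °C. Pinning then delivered five library-drug doses (not always all listed), spaced by √10, onto plates anchored with vehicle, and the cells were left 5 days without changing medium. One step fixed, permeabilised and stained them with Hoechst, and MetaXpress counted nuclei in 4× images. Viability, as a median over plates, is treated-well nuclei divided by vehicle-well nuclei, with acceptance only at control CV below 25% and at least one doubling.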
cell line,measurement,setting,value
Calu-6,relative viability,[1]; first compound 0.08 µM,0.937
same,relative viability,[1]; first compound 0.253 µM,0.847
same,relative viability,[1]; first compound 0.8 µM,0.915
same,relative viability,[1]; first compound 2.53 µM,1.2
same,relative viability,[1]; first compound 8 µM,0.54
same,relative viability,[2]; first compound 0.08 µM,0.873
same,relative viability,[2]; first compound 0.253 µM,0.944
same,relative viability,[2]; first compound 0.8 µM,0.935
same,relative viability,[2]; first compound 2.53 µM,0.969
same,relative viability,[2]; first compound 8 µM,0.441
same,relative viability,[3]; first compound 0.08 µM,1.05
same,relative viability,[3]; first compound 0.253 µM,1.14
same,relative viability,[3]; first compound 0.8 µM,0.933
same,relative viability,[3]; first compound 2.53 µM,1.02
same,relative viability,[3]; first compound 8 µM,0.767
same,relative viability,[4]; first compound 0.08 µM,0.927
same,relative viability,[4]; first compound 0.253 µM,1.14
same,relative viability,[4]; first compound 0.8 µM,0.975
same,relative viability,[4]; first compound 2.53 µM,0.875
same,relative viability,[4]; first compound 8 µM,0.464
same,relative viability,[5]; first compound 0.08 µM,0.475
same,relative viability,[5]; first compound 0.253 µM,0.602
same,relative viability,[5]; first compound 0.8 µM,0.642
same,relative viability,[5]; first compound 2.53 µM,0.573
same,relative viability,[5]; first compound 8 µM,0.462
same,relative viability,[6]; first compound 0.08 µM,0.713
same,relative viability,[6]; first compound 0.253 µM,0.864
same,relative viability,[6]; first compound 0.8 µM,0.631
same,relative viability,[6]; first compound 2.53 µM,0.782
same,relative viability,[6]; first compound 8 µM,0.576
same,relative viability,[7]; first compound 0.08 µM,0.93
same,relative viability,[7]; first compound 0.253 µM,0.93
same,relative viability,[7]; first compound 0.8 µM,0.863
same,relative viability,[7]; first compound 2.53 µM,0.898
same,relative viability,[7]; first compound 8 µM,0.707
same,relative viability,[8]; first compound 0.08 µM,1.02
same,relative viability,[8]; first compound 0.253 µM,1.06
same,relative viability,[8]; first compound 0.8 µM,0.91
same,relative viability,[8]; first compound 2.53 µM,0.997
same,relative viability,[8]; first compound 8 µM,0.807
same,relative viability,[9]; first compound 0.08 µM,1.04
same,relative viability,[9]; first compound 0.253 µM,0.925
same,relative viability,[9]; first compound 0.8 µM,1.1
same,relative viability,[9]; first compound 2.53 µM,1.4
same,relative viability,[9]; first compound 8 µM,0.817
same,relative viability,[10]; 0.08 µM,0.906
same,relative viability,[10]; 0.253 µM,1.02
same,relative viability,[10]; 0.8 µM,1.04
same,relative viability,[10]; 2.53 µM,1.03
same,relative viability,[10]; 8 µM,0.602
EBC-1,relative viability,[1]; first compound 0.08 µM,0.343
same,relative viability,[1]; first compound 0.253 µM,0.37
same,relative viability,[1]; first compound 0.8 µM,0.29
same,relative viability,[1]; first compound 2.53 µM,0.355
same,relative viability,[1]; first compound 8 µM,0.366
same,relative viability,[2]; first compound 0.08 µM,0.396
same,relative viability,[2]; first compound 0.253 µM,0.344
same,relative viability,[2]; first compound 0.8 µM,0.401
same,relative viability,[2]; first compound 2.53 µM,0.316
same,relative viability,[2]; first compound 8 µM,0.369
same,relative viability,[3]; first compound 0.08 µM,0.57
same,relative viability,[3]; first compound 0.253 µM,0.64
same,relative viability,[3]; first compound 0.8 µM,0.513
same,relative viability,[3]; first compound 2.53 µM,0.437
same,relative viability,[3]; first compound 8 µM,0.529
same,relative viability,[4]; first compound 0.08 µM,0.787
same,relative viability,[4]; first compound 0.253 µM,0.804
same,relative viability,[4]; first compound 0.8 µM,1.1
same,relative viability,[4]; first compound 2.53 µM,0.763
same,relative viability,[4]; first compound 8 µM,0.62
same,relative viability,[5]; first compound 0.08 µM,0.596
same,relative viability,[5]; first compound 0.253 µM,0.756
same,relative viability,[5]; first compound 0.8 µM,0.777
same,relative viability,[5]; first compound 2.53 µM,0.772
same,relative viability,[5]; first compound 8 µM,0.463
same,relative viability,[6]; first compound 0.08 µM,0.215
same,relative viability,[6]; first compound 0.8 µM,0.194
same,relative viability,[6]; first compound 2.53 µM,0.177
same,relative viability,[6]; first compound 8 µM,0.196
same,relative viability,[7]; first compound 0.08 µM,0.109
same,relative viability,[7]; first compound 0.253 µM,0.101
same,relative viability,[7]; first compound 0.8 µM,0.104
same,relative viability,[7]; first compound 2.53 µM,0.108
same,relative viability,[7]; first compound 8 µM,0.106
same,relative viability,[8]; first compound 0.08 µM,0.812
same,relative viability,[8]; first compound 0.253 µM,0.861
same,relative viability,[8]; first compound 0.8 µM,0.789
same,relative viability,[8]; first compound 2.53 µM,0.97
same,relative viability,[8]; first compound 8 µM,0.643
same,relative viability,[9]; first compound 0.08 µM,0.196
same,relative viability,[9]; first compound 0.8 µM,0.212
same,relative viability,[9]; first compound 2.53 µM,0.191
same,relative viability,[9]; first compound 8 µM,0.225
same,relative viability,[10]; 0.08 µM,0.845
same,relative viability,[10]; 0.253 µM,0.881
same,relative viability,[10]; 0.8 µM,1.09
same,relative viability,[10]; 2.53 µM,1.02
same,relative viability,[10]; 8 µM,0.671

# — the supplement of paper PMC10307832
